{"source": "patent US12048679B2", "about": "“P53-destabilizing protein associated with proto-oncogene stemness as a therapeutic target and inhibitors thereof for use in treatment of cancer” (University of Southern California, priority 2021, dated 2024)", "key": {"[1]": {"system": "NOTCH1 (NICD level) in CD133(+) or (−) TICs", "assay": "NOTCH1 processing: NICD produced after EDTA and DAPT treatment, Western blot", "type": "cell-based", "settings": "20 μM DAPT (4 h) with 5 mM EDTA (20 min), CD133-positive and negative TICs", "experimental": "FIGS. 1M and 1N depict that TBC1D15 affects NOTCH1 processing. • (1M) Western blot analysis for expression of endogenous NOTCH1 and N1ΔE-myc tag in CD133-positive and negative TICs, transfected with N1ΔE-FL and N1ΔE-ΔPEST and treated with vehicle or 20 μM DAPT (for 4 h), and 5 mM EDTA (for 20 min). • (1N) Western blot analysis for endogenous NOTCH1 and N1ΔE-myc tag in CD133-positive and negative TICs, transfected with N1ΔE-FL, N1ΔE-ΔPEST, and N1ΔE-V1745L (inhibition of gamma-secretase cleavage) and treated with vehicle or 20 μM DAPT.\nPin1 is known to promote tumor formation by binding to the NOTCH/NICD STR domain and regulating its activity. To determine how TBC1D15 affects NOTCH1 activity, we tested whether it regulates NOTCH1 processing through a combination of a disintegrin and metalloproteinase (ADAM) 17 and γ-secretase. We overexpressed a membrane-tethered, ligand-independent wild type NOTCH1, a NOTCH1 derivative [NΔE, that is constitutively cleaved by γ-secretase, releasing active NICD (Rustighi et al., EMBO Mol Med 6, 99-119. 10.1002/emmm.201302909)], NΔE-ΔPEST, and NΔE-V1745L in CD133(+) or (−) TICs. We then analyzed the effects of TBC1D15 on endogenous NOTCH1 processing by measuring the amount of NICD produced after ethylenediaminetetraacetic acid (EDTA) and DAPT treatment in vitro."}, "NANOG-GFP reporter": {"system": "NANOG-GFP reporter", "assay": "NANOG-GFP reporter in Huh7 cell line, FACS", "type": "cell-based", "settings": "FIG. 7C right"}, "[2]": {"target": "T1, TBC1D15-NOTCH interaction (Homo sapiens, UniProt Q8TC07)", "T1 sequence (Q8TC07 1-691)": "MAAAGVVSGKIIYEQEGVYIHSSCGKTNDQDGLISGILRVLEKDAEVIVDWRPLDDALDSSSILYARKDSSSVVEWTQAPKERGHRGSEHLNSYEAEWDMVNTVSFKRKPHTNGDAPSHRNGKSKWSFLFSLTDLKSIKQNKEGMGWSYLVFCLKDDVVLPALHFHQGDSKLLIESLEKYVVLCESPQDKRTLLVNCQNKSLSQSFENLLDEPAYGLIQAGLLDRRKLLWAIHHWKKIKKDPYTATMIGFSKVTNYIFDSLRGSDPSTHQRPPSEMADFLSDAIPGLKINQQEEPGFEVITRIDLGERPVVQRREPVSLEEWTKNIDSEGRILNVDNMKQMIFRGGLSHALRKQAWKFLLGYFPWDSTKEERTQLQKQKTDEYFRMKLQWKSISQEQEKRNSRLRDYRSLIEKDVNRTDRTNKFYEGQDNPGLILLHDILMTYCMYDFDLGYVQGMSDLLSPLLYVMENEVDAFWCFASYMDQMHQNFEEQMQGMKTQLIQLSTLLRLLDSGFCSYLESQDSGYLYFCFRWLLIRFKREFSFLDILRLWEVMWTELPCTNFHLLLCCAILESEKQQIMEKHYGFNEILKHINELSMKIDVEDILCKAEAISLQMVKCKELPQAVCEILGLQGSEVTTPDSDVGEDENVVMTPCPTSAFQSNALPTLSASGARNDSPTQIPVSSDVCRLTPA", "assay": "Fluorescence polarization assay of FITC-tagged NOTCH1 PEST/STR domain peptide with recombinant TBC1D15", "type": "binding", "settings": "FIG. 7C left", "source_text": "FIGS. 7A-7G depict that activated NOTCH can be targeted by small molecule inhibitors. • (7A) Analyses of 3D structure of TBC1D15-NOTCH1 interaction identified TBC1D15 N terminal region docking with a.a.1805-2113 of NOTCH1. […] See SEQ ID NOs:6-12 and 1, as depicted. Both were labeled with FITC and used with recombinant TBC1D15 for fluorescence polarization assay. The mutant served as a negative control. […] HA-NUMB-3D is HA-tagged phosphor-mimetic mutant of NUMB protein wherein three serine resides of phosphorylation sites are all replaced with phosphor-mimetic amino acid, D (aspartic acid), to have constitutively phosphorylated status of NUMB protein that reduce the binding ability between NOTCH and NUMB. […]\nIn some embodiments, an inhibitor of TBC1D15 is a compound that inhibits binding of TBC1D15 with NOTCH, or inhibits the interaction between TBC1D15 and NOTCH. […] In yet another aspect, the inhibitor of TBC1D15 can be identified through a fluorescence polarization assay, wherein a fluorophore-labeled, binding domain of NOTCH1 (e.g., the STR domain or the PEST domain, or a peptide fragment thereof, within NICD) would have an increased fluorescence polarization (FP) when it is non-covalently bound to TBC1D15, as depicted in FIG. 7B, or a decreased FP when it is not bound to TBC1D15 due to the presence of an inhibitor of TBC1D15. […]"}, "patient HCC": {"system": "patient HCC", "assay": "Patient-derived xenograft (PDX) model of HCC in NSG mice", "type": "in vivo", "source_text": "(§1) FIGS. 7A-7G depict that activated NOTCH can be targeted by small molecule inhibitors. • (7A) Analyses of 3D structure of TBC1D15-NOTCH1 interaction identified TBC1D15 N terminal region docking with a.a.1805-2113 of NOTCH1. […] See SEQ ID NOs:6-12 and 1, as depicted. Both were labeled with FITC and used with recombinant TBC1D15 for fluorescence polarization assay. The mutant served as a negative control. […] HA-NUMB-3D is HA-tagged phosphor-mimetic mutant of NUMB protein wherein three serine resides of phosphorylation sites are all replaced with phosphor-mimetic amino acid, D (aspartic acid), to have constitutively phosphorylated status of NUMB protein that reduce the binding ability between NOTCH and NUMB. […] We then tested the therapeutic efficacy of the Inhibitor A in the PDX model of HCC. When the two oncogenic targets were restored by use of AAV vector-mediated co-transduction of both activated N1ICD and phosphormimetic NUMB, the tumor-killing effect of Inhibitor A was negated. Inhibitor A's tumor killing effects are largely dependent upon the inhibition of NOTCH activation and suppressing NUMB phosphorylation status.\nPDX mice were treated with the optimum dosing schedule. We monitored tumor sizes weekly three weeks post-transplantation for a total of 4 weeks (until the end of week 7). (If the tumor size reaches a diameter of ≥1.5 cm before 7 wk, we euthanized the mice per the IACUC guideline for tumor-bearing mice.) Our prior experience with the untreated HCC PDX model is 5-7 weeks are needed to generate tumors of the desired size (FIG. 7F). […]\nTo test the therapeutic efficacy of the new inhibitor for its effect on TBC1D15-NICD interaction, we employed a true patient-derived xenograft (PDX) HCC model (FIG. 7F). We determined if newly identified small molecule inhibitors of the TBC1D15-NICD interaction would prevent tumor growth in the HCC PDX mouse model and specifically if this therapeutic effect was negatively affected by NICD expression, NUMB-3D expression, or the co-expression of NICD and NUMB-3D."}, "dsRed-labeled TICs": {"system": "dsRed-labeled TICs", "assay": "Tumor growth of dsRed-labeled TICs transplanted subcutaneously into NSG mice", "type": "in vivo", "settings": "for tumors with fluorescence emission (dsRed imaging): FIG. 7E", "source_text": "as §1\nWe tested the therapeutic efficacy of Inhibitor A in the patient-derived xenograft (PDX) model of HCC. […] A separate pharmacokinetic study was conducted at three doses (10, 20, 40 mg/kg) administered i.p. into NSG mice to determine blood and tissue levels of the Inhibitor and tissue histology. From these studies, we assessed pharmacokinetic, toxicity, and efficacy data to select an optimal dosing scheme."}, "[3]": {"system": "CD133-positive TICs / CD133+ Huh7 cells", "assay": "Viability screening, CD133-positive cells", "type": "cell-based", "settings": "FIG. 7C middle"}, "[4]": {"system": "HEY1-CFP reporter (NOTCH-CFP)", "assay": "HEY1-CFP (NOTCH-CFP) reporter in Huh7 cell line, FACS", "type": "cell-based", "settings": "FIG. 7C right"}, "[5]": {"system": "CD133-negative TICs / CD133− Huh7 cells", "assay": "Viability screening, CD133-negative control cells", "type": "cell-based", "settings": "FIG. 7C middle"}, "primary hepatocytes": {"system": "primary hepatocytes", "assay": "Viability of primary hepatocytes", "type": "cell-based", "settings": "FIG. 7C middle", "source_text": "as §1"}, "[6]": {"system": "p53, N1ICD and NANOG protein levels", "assay": "Immunoblots of xenograft tumors", "type": "in vivo, NSG mice", "settings": "Inhibitor A-treated xenograft tumors, FIG. 7G", "source_text": "as §1\nPDX mice were treated with the optimum dosing schedule. We monitored tumor sizes weekly three weeks post-transplantation for a total of 4 weeks (until the end of week 7). (If the tumor size reaches a diameter of ≥1.5 cm before 7 wk, we euthanized the mice per the IACUC guideline for tumor-bearing mice.) Our prior experience with the untreated HCC PDX model is 5-7 weeks are needed to generate tumors of the desired size (FIG. 7F). Experimental animals were euthanized at the end of the seven weeks study period and all tumor tissues were collected for histology for tumor characterization. Immunoblots were used to detect levels of for NANOG, TBC1D15, NICD, HES1 or HEY, CD133, p53, NUMB, and pS265-NUMB (FIG. 7G). Immunohistochemistry analysis was performed to monitor the expression of CD133, NANOG, p53, and Ki67."}}, "note": "“Also recorded” adds a separate entry of the source."}
{"smiles": "C[C@H](NC(=O)Cc1cc(F)cc(F)c1)C(=O)N[C@H](C(=O)OC(C)(C)C)c1ccccc1", "note": "[DAPT, N—[N-(3,5-Difluorophenacetyl)-L-alanyl]-S-phenylglycine t-butyl ester]", "values": [{"measurement": "effect on NICD level", "setting": "[1]", "value": "no observed effect on NICD level"}]}
{"smiles": "O=C(O)CCC/C=C\\C[C@@H]1[C@@H](CC[C@@H](O)CCc2ccccc2)[C@H](O)C[C@@H]1O", "note": "[Inhibitor A, (5Z,9α, 11α, 15R)-9,11,15-Trihydroxy-17-phenyl-18,19,20-trinor-prost-5-en-1-oic acid]", "values": [{"measurement": "NANOG-GFP / NANOG promoter reporter activity", "setting": "NANOG-GFP reporter", "value": "reduced HEY1 and NANOG promoter activities; also recorded: abrogates NOTCH-CFP and NANOG-GFP reporter activities"}, {"measurement": "inhibition of NOTCH-TBC1D15 interaction", "setting": "[2]", "value": "effectively blocked the NOTCH-TBC1D15 interaction; also recorded: suppressed interaction between TBC1D15 and NICD; also recorded: blocked NOTCH1/3-TBC1D15 interactions"}, {"measurement": "growth suppression of patient HCC after N1ICD and HA-NUMB-3D co-transduction", "setting": "patient HCC; HCC tissues infected with AAV vector delivering N1ICD and HA-NUMB-3D before transplantation", "value": "this effect largely diminished"}, {"measurement": "therapeutic effect under NICD overexpression", "setting": "patient HCC; NICD overexpression", "value": "NICD overexpression blocked the therapeutic effect"}, {"measurement": "growth of patient HCC transplanted into NSG mice", "setting": "patient HCC; PDX model, FIG. 7F", "value": "suppressed the growth of patient HCC"}, {"measurement": "tumors with fluorescence emission (dsRed imaging)", "setting": "dsRed-labeled TICs; 10 mg/kg dose", "value": "Tumors with fluorescence emission were detected"}, {"measurement": "inhibition of tumor growth", "setting": "dsRed-labeled TICs; 40 mg/kg i.p. 5 times a week", "value": "significant inhibition of tumor growth"}, {"measurement": "effect on tumor growth", "setting": "dsRed-labeled TICs; dose series, NSG mice with dsRed-labeled TICs, FIG. 7D", "value": "dose-dependent inhibitory effect"}, {"measurement": "tumors with fluorescence emission (dsRed imaging)", "setting": "dsRed-labeled TICs; doses higher than 10 mg/kg", "value": "not in those treated with higher doses"}, {"measurement": "toxicity to CD133-positive cells", "setting": "[3]", "value": "selectively killed CD133 positive TICs; also recorded: selectively kills CD133^+ Huh7 cells"}, {"measurement": "NOTCH-CFP / HEY1 promoter reporter activity", "setting": "[4]", "value": "reduced HEY1 and NANOG promoter activities; also recorded: abrogates NOTCH-CFP and NANOG-GFP reporter activities"}, {"measurement": "toxicity to CD133-negative cells", "setting": "[5]", "value": "not CD133^− Huh7 cells"}, {"measurement": "toxicity to primary hepatocytes", "setting": "primary hepatocytes", "value": "not CD133^− Huh7 cells or primary hepatocytes"}, {"measurement": "N1ICD protein level in xenograft tumors", "setting": "[6]", "value": "reduced N1ICD and NANOG protein levels"}, {"measurement": "NANOG protein level in xenograft tumors", "setting": "[6]", "value": "reduced N1ICD and NANOG protein levels"}, {"measurement": "p53 protein level in xenograft tumors", "setting": "[6]", "value": "elevated p53 protein level"}]}
